One data set can be described thus: in vitro. As to conditions: human, hela cells, % viability.
For the compound `Clc1ccc(CN2CCN(c3nccnc3OCC3COc4ccccc4O3)CC2)cc1` (centres unmarked) [CBK082786T], the viability at 28.5 h, 10 µM was determined as 101%. On the same count and under the same terms, for `O=C(OCCc1cccnc1)N1CCC(C(F)(F)F)CC1` [CBK200159] the value was 94.9%; for `Cc1nc(CNC(=O)c2nn(-c3cccc(C(C)C)c3)cc2O)no1` [CBK305269], 89%; for `Cn1cc([C@@H]2CN(Cc3ccc(F)c(F)c3)C[C@H]2N)c2ccncc21` [CBK285179], 88.3%.

Consider `CCN(CC)C(=O)c1ccsc1NS(=O)(=O)c1cccc2cccnc12` [CBK042317], for which the viability at 28.5 h, 10 µM came to 87.1%. Consider `CCC1(CC)OC(N[C@@H](C)c2ccccc2C(F)(F)F)=NC1=O` [CBK122691], for which the viability at 28.5 h, 10 µM was found to be 91.2%. Regarding `O=C1C=C(OCc2ccccc2)CN1` [CBK020360], the viability at 28.5 h, 10 µM was found to be 94.4%.

For `Cc1c(-c2ccnc(N)n2)nnn1-c1ccc(Cl)cc1Cl` [CBK018733], the viability at 28.5 h, 10 µM amounted to 65.5%.

Turning to `Cc1noc(C)c1CC(=O)N1CCc2[nH]c3ccccc3c2C1` [CBK281848], the viability at 28.5 h, 10 µM was found to be 97.8%. The same measure, in the same setting: for `Cc1cc(S(=O)(=O)N(CCC#N)c2ccccc2)c(C)cc1Cl` [CBK043618] the value was 85.7%; for `Cc1nn(CC(=O)OC(C)C)c(=O)c2cc3sccc3n12` [CBK284022], 93.7%; for `O=C(Nc1ccc(OCc2ccccc2)cc1)OCC1CN(Cc2ccccc2)CCO1` (centres unmarked) [CBK074792], 102%. Still for that read-out and setting: the result for `COc1nc(OC)nc(Sc2ccc(N)cc2)n1` [CBK019319] reads 88.3%; that for `Fc1ccc(OCCCN2CCC3(CC2)OCCc2c3[nH]c3ccccc23)cc1` [CBK107736], 77%; that for `NS(=O)(=O)c1ccc(NCc2cc(Cl)ccc2OCc2ccc(F)cc2)cc1` [CBK268196], 87.2%. For the compound `CCOc1cccc(N2C(=O)CC(N3CCC(C(N)=O)(N4CCCCC4)CC3)C2=O)c1` (centres unmarked) [CBK263562], the viability at 28.5 h, 10 µM worked out at 99%. Still for that read-out and setting: for `O=C(NCCO)c1ccc(-c2cnc3[nH]c(=O)n(C4CCOCC4)c3n2)cc1` [CBK065041] the value was 108%; for `CC(C)(N)CC(=O)N1CCC(Cn2cncn2)(C2CCCCC2)CC1` [CBK136822], 89.4%; for `O=C1NC2(CCN(C(=O)c3cccs3)CC2)Oc2ccccc21` [CBK283998], 87.3%.

With `CCc1c(C)nc2n(c1=O)C(CS(=O)(=O)c1ccccc1)CS2` (centres unmarked) [CBK268949], the viability at 28.5 h, 10 µM was found to be 94.7%. Still for that read-out and setting: for `CCOc1ccccc1CN(C)c1cc(C2CC(N)C2)nc(N)n1` (centres unmarked) [CBK307308] the value was 82.4%; for `Cc1n[nH]c(=O)c2noc(C)c12` [CBK000857], 108%.

`CN(C)CCNC(=O)c1cc(-c2ccncc2)nc2ccc(Br)cc12` [CBK267728]: the viability at 28.5 h, 10 µM amounted to 103%. On the same count and under the same terms, for `COc1cccc(C(O)CN2CCC3(CC2)CC(O)c2cc(Cl)c(C)cc2O3)c1` (centres unmarked) [CBK286342] the value was 99.3%. On the same count and under the same terms, the result for `NC(Cc1ccccc1)CN(CC1(c2ccc(Cl)cc2)CC1)C(=O)Nc1ccc2c(c1)OCO2` (centres unmarked) [CBK002342C] reads 76.1%. The same measure, in the same setting: for `Cc1cc(C)n(-c2ccnc(NCc3cccnc3)n2)n1` [CBK288614] the value was 109%; for `CC(=O)Nc1nc(-c2cccs2)c(-c2cc(C)no2)s1` [CBK284493], 98.9%; for `Cc1cccc(-n2c(SCC(=O)Nc3ccc(Br)cc3F)nnc2-c2ccccc2)c1` [CBK265903], 98.9%. In the case of `CCN1CCN(C(=O)C2CCN(S(=O)(=O)c3ccc(Br)cc3)CC2)CC1` [CBK266881], the viability at 28.5 h, 10 µM is 103%.

Turning to `c1nc(Nc2ccc3[nH]ccc3c2)cc(-c2ccc(N3CCOCC3)cc2)n1` [CBK090851], the viability at 28.5 h, 10 µM turned out to be 91.1%.

As for `Cc1ccc(C)c(OCCN(C)c2cc(C3CC(N)C3)nc(N)n2)c1` (centres unmarked) [CBK307695], the viability at 28.5 h, 10 µM came to 45.4%. Same read-out and setting: the result for `CCn1c(=O)c(C(=O)NCCN2CCCCC2)c(O)c2ccccc21` [CBK261432C] reads 97.7%; that for `Cc1nn(CCNC(=O)C(c2ccc(F)cc2)N(C)C)c(C)c1C` (centres unmarked) [CBK282009], 89.2%; that for `O=C(NCCCc1ccc(F)cc1)c1cccc(N2CCCC2=O)c1` [CBK282684], 88.6%. The same measure, in the same setting: for `O=C(Cc1c[nH]cn1)Nc1ccc2cc[nH]c2c1` [CBK160059] the value was 95.1%. Same read-out and setting: the result for `O=C(C1=C(O)C(=O)N(CCN2CCOCC2)C1c1ccco1)c1cccs1` (centres unmarked) [CBK264506] reads 96%; that for `COC(=O)c1ccc(N2CCN(Cc3nc(C4CC4)no3)C(C)C2)cc1` (centres unmarked) [CBK305744], 98%; that for `O=S(=O)(c1ccc(F)cc1F)n1ccc2c(N3CCNCC3)nccc21` [CBK059061C], 89.7%. Consider `CCCCC1CCC(C(=O)Nc2ncccn2)CC1` (centres unmarked) [CBK027423], for which the viability at 28.5 h, 10 µM is 113%. With `CCSc1nc(N2CCNC[C@@H]2C)ccc1C(F)(F)F` [CBK003986A], the viability at 28.5 h, 10 µM worked out at 96.1%. The same measure, in the same setting: for `CCc1ccc(C(O)CNC2CCN(C3CCCCC3)CC2)cc1` (centres unmarked) [CBK304604] the value was 88.2%; for `CNC(=O)c1sc2ccccc2c1C1CCN(Cc2cnn(-c3ccc(F)cc3)c2)C1` (centres unmarked) [CBK285882], 84.1%. Still for that read-out and setting: the result for `Cc1ccc(C(=O)NNC(=S)Nc2ccc(S(N)(=O)=O)cc2)cc1[N+](=O)[O-]` [CBK266866] reads 95.6%. Take `CN1CCN(c2ccc(NC(=O)c3ccc(OCc4ccccc4)cc3)cc2Cl)CC1` [CBK269080]: the viability at 28.5 h, 10 µM came to 96.2%. The same measure, in the same setting: the result for `Cc1oc(-c2cccs2)cc1C(=O)O` [CBK021183] reads 93.5%; that for `O=C(CN1CCCC1Cn1cccn1)N1CCCc2ccccc21` (centres unmarked) [CBK281971], 89%; that for `CN1CCN(c2cc3ncccc3cc2F)CC1` [CBK066904], 105%. Still for that read-out and setting: for `C[C@H](c1ccccc1)n1c(=O)[nH]c2ncc(-c3cccc4ncccc34)nc21` [CBK064173] the value was 89.6%. The same measure, in the same setting: the result for `CC(Oc1ccccc1)C(=O)Nc1ccccc1-c1ccccc1` (centres unmarked) [CBK264059] reads 111%; that for `Cc1ccc2c(c1)cc(C)c1nn(CC(=O)NC(C)C)c(=O)n12` [CBK283874], 83.5%; that for `Cn1cc(C(=O)O)c(NC(=O)c2ccccc2Cl)n1` [CBK000353], 95.8%. `CCOC(=O)C(CO)NC(=O)c1cncc(Br)c1` (centres unmarked) [CBK263926]: the viability at 28.5 h, 10 µM was determined as 83.8%. With `Clc1ccc(-n2c(COc3cccc4cccnc34)nnc2SCc2ccccc2)cc1` [CBK268502], the viability at 28.5 h, 10 µM was determined as 103%. Same read-out and setting: the result for `Cc1cc(C)cc(N(C(C)C(=O)N2CCN(Cc3ccc4c(c3)OCO4)CC2)S(C)(=O)=O)c1` (centres unmarked) [CBK269060] reads 90.3%. On to `O=S1(=O)N=C(Nc2ccc(S(=O)(=O)N3CCOCC3)cc2)c2ccccc21` [CBK269116], for which the viability at 28.5 h, 10 µM amounted to 91%.

As to `O=S(=O)(O)CCCSc1nc2ccccc2s1` [CBK260900N], the viability at 28.5 h, 10 µM is 100%.

In the case of `Cc1ccc(-n2c(=O)[nH]c3c(C(N)=O)nc(-c4ccccc4)nc32)cc1C` [CBK287718], the viability at 28.5 h, 10 µM was 84.7%. Same read-out and setting: the result for `N#CCCN(CCc1ccccc1)S(=O)(=O)c1cccc2nsnc12` [CBK261138] reads 104%. The same measure, in the same setting: for `Cc1ccccc1NC(=O)/C(=C\c1cccnc1)NC(=O)c1ccccc1` [CBK261632] the value was 93.9%; for `O=C1CC2(C(=O)N1CCC1CCCCC1)C(=O)N(Cc1ccccc1)c1ccc(F)cc12` (centres unmarked) [CBK075175], 91%. Regarding `O=C(NCCN1CCC(O)(c2cccc(F)c2)CC1)C1CC=CCC1` (centres unmarked) [CBK282451], the viability at 28.5 h, 10 µM stood at 101%. Same read-out and setting: for `NC(=O)c1ccc(-n2ncc(-c3ccsc3)n2)cc1` [CBK112858] the value was 98.4%; for `Cc1nc(O)c2c3c(sc2n1)CCCC3` [CBK016462], 83.1%.

In the case of `CN1CC(=O)N(CC(=O)N2CC=C(c3ccccc3)CC2)c2ccccc2C1=O` [CBK294433], the viability at 28.5 h, 10 µM came out at 88%.

For `CCn1cc(CN(CCOC)C(=O)c2cc3c(Cl)cccc3[nH]2)cn1` [CBK306903], the viability at 28.5 h, 10 µM was determined as 91.5%. Still for that read-out and setting: the result for `CCNC(=O)N1CCN(CCCCN2C(=O)CC3(CCCC3)CC2=O)CC1` [CBK024999C] reads 102%; that for `O=C(c1cn2ccccc2n1)N1CCCN(Cc2cscn2)CC1` [CBK305352], 104%; that for `COc1ccc(NC(=O)CSc2nc(N)n[nH]2)cc1Cl` [CBK268065], 108%.

For the compound `CC(Sc1nncs1)C(=O)N1CCCc2ccccc21` (centres unmarked) [CBK304871], the viability at 28.5 h, 10 µM stood at 94.6%. The same measure, in the same setting: the result for `CC1CCN(S(=O)(=O)c2ccc(NC(=O)COc3ccc([N+](=O)[O-])cc3)cc2)CC1` [CBK264994] reads 95.4%. The same measure, in the same setting: the result for `Cc1ccc(C(=O)Nc2ccc(C(=O)O)cc2)cc1S(=O)(=O)NCc1ccccc1` [CBK263219] reads 101%; that for `CN(C)S(=O)(=O)c1ccc(Cl)c(C(=O)Nc2ccc(C(=O)O)cc2)c1` [CBK265728], 94.7%. Still for that read-out and setting: the result for `Cc1ccc(C(=O)N2CN(C(=O)CNC3CC3)CC2(C)C)cc1` [CBK089574C] reads 98.4%. As to `COc1cccc(CN(Cc2ccco2)Cc2cnc(C)n2C)c1` [CBK282494], the viability at 28.5 h, 10 µM came to 93.6%. The same measure, in the same setting: for `CC1CCC(C(=O)Nc2ccc(C(=O)O)cc2)CC1` (centres unmarked) [CBK287234] the value was 94.8%; for `CC(C)(CO)CNc1nc(-c2ccc3c(c2)OCO3)cnc1N` [CBK063459], 105%. Same read-out and setting: the result for `O=S(=O)(Nc1nnc(C(F)(F)F)s1)c1csc2ccccc12` [CBK062009] reads 95.9%. On the same count and under the same terms, for `CN1CCC(N(C)Cc2cc(Cl)ccc2[N+](=O)[O-])CC1` [CBK261576] the value was 91.1%; for `O=C(COc1ccccc1Cl)N/N=C/c1ccc(-c2ccccc2[N+](=O)[O-])o1` [CBK262782], 112%.

The same data set, now with this note: human, hela cells, % viability, bulk resorufin, single well.
In the case of `O=C(O)c1ccccc1C(=O)N1CCC2(CC1)OCc1cc(F)ccc1O2` [CBK060863], the viability at 28.5 h, 10 µM amounted to 109%.

Source of the values: article PMC12040169 (PLOS Biology, 2025).
